Here are results for two compounds from article PMC8064090 (Biomolecules, 2021).

Read-outs that look alike come from different tables or passages of the source.

The target in assay [1] is T1, wild type (WT) South African HIV-1 subtype C protease (HIV-1 PR) (Human immunodeficiency virus type 1 group M subtype C, UniProt O12158). Description: Enzyme inhibition assay with chromogenic substrate (Dixon method), wild type PR. To be noted: for Relative Resistance: WT, Ki of mutant/Ki of WT. The assay is classed as biochemical. As for the experimental part: (§1) HIV-1 PR activity was measured by adding a purified enzyme (100–300 nM) to 300 µM of the chromogenic substrate Lys-Ala-Arg-Val-Nle-p-nitro-Phe-Glu-Ala-Nle amide (Sigma-Aldrich, St. Louis, MO, USA) dissolved in buffer D (50 mM sodium acetate buffer containing 100 mM NaCl (pH 5.0)) at 37 °C. The change in absorbance upon hydrolysis of the substrate by HIV-1 PR was monitored, and an extinction coefficient of 1800 M-1 cm-1 at a wavelength of 300 nm was used to convert the absorbance change to reaction rates. […] The data obtained were analyzed by plotting the reciprocal of substrate hydrolysis against substrate concentration (Lineweaver–Burk method to determine the Km and Kcat) and inhibitor concentration (Dixon method to determine the Ki) respectively.
T1 sequence (O12158 485-583): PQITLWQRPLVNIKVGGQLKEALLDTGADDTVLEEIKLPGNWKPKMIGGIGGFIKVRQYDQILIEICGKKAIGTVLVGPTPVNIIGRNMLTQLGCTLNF

The target of assay [2] is T2, HIV-1 PR MUT-1 (M46I, I54V, V82A, L10F) (Human immunodeficiency virus type 1 group M subtype C, UniProt O12158, I538V/L494F/M530I/V566A). As to the kind of experiment: biochemical. As to the method: as §1
T2 sequence (O12158 485-583 L494F/M530I/I538V/V566A): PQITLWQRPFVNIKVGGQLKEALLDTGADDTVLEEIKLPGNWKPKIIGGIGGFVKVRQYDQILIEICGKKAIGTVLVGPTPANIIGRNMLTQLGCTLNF
Assay [3] deals with HIV-1 PR MUT-2 (M46I, I54V, L76V, V82A, L33F, L10F) (Human immunodeficiency virus type 1 group M subtype C, UniProt O12158, I538V/L494F/L517F/L560V/M530I/V566A). As to the kind of experiment: biochemical. As to the method: as §1
HIV-1 PR MUT-2 (M46I, I54V, L76V, V82A, L33F, L10F) (Human immunodeficiency virus type 1 group M subtype C, UniProt O12158, I538V/L494F/L517F/L560V/M530I/V566A), sequence (O12158 485-583 L494F/L517F/M530I/I538V/L560V/V566A): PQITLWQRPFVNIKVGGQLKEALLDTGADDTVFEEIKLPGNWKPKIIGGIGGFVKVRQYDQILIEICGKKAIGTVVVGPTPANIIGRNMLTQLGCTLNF
Assay [4] deals with T3, HIV-1 PR MUT-3 (M46I, I54V, L76V, V82A, L90M, F53L) (Human immunodeficiency virus type 1 group M subtype C, UniProt O12158, F537L/I538V/L560V/L574M/M530I/V566A). As to the kind of experiment: biochemical. As for the experimental part:
as §1

Assay [5] has as its target T1, wild type (WT) South African HIV-1 subtype C protease (HIV-1 PR). Description: Intrinsic tryptophan fluorescence quenching assay, wild type PR. It is filed as binding. As to the method:
(§2) Fluorescent spectra were recorded as described previously using a PerkinElmer LS 55 spectrometer with a 1.0 cm quartz cell (PerkinElmer, Waltham, MA, USA) and connected to a thermostat-controlled bath. This assay utilized the intrinsic tryptophan (Trp) fluorescence by causing the excitation of the π–π* transition in the tryptophan residues. Two Trp residues are found at positions 6 and 42 in each monomer of HIV-1 PR. Trp 6 is located close to the active site, and Trp 42 is found close to the flap of the HIV-1 PR. The position of the Trp residues on the enzyme surface makes them good probes in monitoring changes in the HIV-1 PR tertiary structure. The protein was excited at 295 nm, and fluorescence measurements were recorded from 300 to 420 nm at room temperature (25 °C). The excitation and emission slit widths were set at 5 nm, and the fluorescence spectra were acquired at 500 nm/min. The obtained fluorescence data was corrected and smoothened by running control samples of the buffer. For the fluorescence quenching study, […] of HIV-1 PR and varying inhibitor concentration from 10 to 500 nM were used. For every reaction, a new enzyme solution was used. The decrease in intrinsic Trp fluorescence (F0–F) at each concentration of inhibitor was fitted to the equation (F0–F) = ΔFmax/(1 + (Ki/[I]) to determine Ki and ΔFmax values using the Origin(Pro), 2019 (OriginLab Corporation, Northampton, MA, USA). The Stern–Volmer quenching constants (Ksv) were also calculated by fitting the data into the equation F0/F = 1 + Ksv (Q). The Stern–Volmer constant reports the accessibility of fluorophores to a quencher and the solvent accessibility of the fluorophore. Thus, it is an essential tool that can be used to probe the conformational changes around a fluorophore in proteins. […] The inner filter effect was corrected by using the formula Fc = Fantilog[(Aex + Aem)/2], where Fc is the corrected measurement and F is the measured fluorescence intensities, respectively, Aex is solution absorbance at the excitation, and Aem emission wavelengths.

Assay [6] has as its target T4, HIV-1 PR MUT-2 (M46I, I54V, L76V, V82A, L10F, L33F) (Human immunodeficiency virus type 1 group M subtype C, UniProt O12158, I538V/L494F/L517F/L560V/M530I/V566A).
T4 construct: The HIV-1 PR is a 99 amino acid homodimer; made in house; host or cells: Escherichia coli (NEBExpress)
As to the kind of experiment: Intrinsic tryptophan fluorescence quenching assay, MUT-2 PR. The assay is classed as binding, HIV-1 subtype C. Particulars: MUT-2 HIV-1 PR; for Ki: tryptophan fluorescence, 25 °C. As for the experimental part:
as §2, with “used.” for “used. The decrease in intrinsic Trp fluorescence (F0–F) at each concentration of inhibitor was fitted to the equation (F0–F) = ΔFmax/(1 + (Ki/[I]) to determine Ki and ΔFmax values using the Origin(Pro), 2019 (OriginLab Corporation, Northampton, MA, USA). The Stern–Volmer quenching constants (Ksv) were also calculated by fitting the data into the equation F0/F = 1 + Ksv (Q). The Stern–Volmer constant reports the accessibility of fluorophores to a quencher and the solvent accessibility of the fluorophore. Thus, it is an essential tool that can be used to probe the conformational changes around a fluorophore in proteins.”

For assay [7], the target named is wild type South African HIV-1 subtype C PR. To be noted: previous study ref 71; cited from earlier work.
The target in assay [8] is wild-type subtype B HIV-1 PR. To be noted: cited from earlier work.
Assay [9] has as its target T2, HIV-1 PR MUT-1 (M46I, I54V, V82A, L10F). As to the kind of experiment: biochemical. It is filed as binding, HIV-1 subtype C. Set-up: The HIV-1 PR is a 99 amino acid homodimer; made in house; host or cells: Escherichia coli (NEBExpress). To be noted: for Stern–Volmer quenching constant (Ksv): MUT-1 HIV-1 PR. As to the method: as §2, with “used.” for “used. The decrease in intrinsic Trp fluorescence (F0–F) at each concentration of inhibitor was fitted to the equation (F0–F) = ΔFmax/(1 + (Ki/[I]) to determine Ki and ΔFmax values using the Origin(Pro), 2019 (OriginLab Corporation, Northampton, MA, USA). The Stern–Volmer quenching constants (Ksv) were also calculated by fitting the data into the equation F0/F = 1 + Ksv (Q). The Stern–Volmer constant reports the accessibility of fluorophores to a quencher and the solvent accessibility of the fluorophore. Thus, it is an essential tool that can be used to probe the conformational changes around a fluorophore in proteins.”

Assay [10] deals with T3, HIV-1 PR MUT-3 (M46I, I54V, L76V, V82A, L90M, F53L). Description: biochemical. It is filed as binding, HIV-1 subtype C. On the set-up: The HIV-1 PR is a 99 amino acid homodimer; made in house; host or cells: Escherichia coli (NEBExpress). Particulars: for Stern–Volmer quenching constant (Ksv): MUT-3 HIV-1 PR. As to the method: as §2, with “used.” for “used. The decrease in intrinsic Trp fluorescence (F0–F) at each concentration of inhibitor was fitted to the equation (F0–F) = ΔFmax/(1 + (Ki/[I]) to determine Ki and ΔFmax values using the Origin(Pro), 2019 (OriginLab Corporation, Northampton, MA, USA). The Stern–Volmer quenching constants (Ksv) were also calculated by fitting the data into the equation F0/F = 1 + Ksv (Q). The Stern–Volmer constant reports the accessibility of fluorophores to a quencher and the solvent accessibility of the fluorophore. Thus, it is an essential tool that can be used to probe the conformational changes around a fluorophore in proteins.”

The subject of assay [11] is HIV-1 PR MUT-1 (M46I, I54V, V82A, L10F). Description: biochemical. To be noted: MUT-1; Ki of mutant/Ki of WT. As to the method: as §1
Assay [12] concerns HIV-1 PR MUT-2 (M46I, I54V, L76V, V82A, L33F, L10F). Description: biochemical. To be noted: MUT-2; Ki of mutant/Ki of WT. As for the experimental part: as §1
Assay [13] relates to HIV-1 PR MUT-3 (M46I, I54V, L76V, V82A, L90M, F53L). As to the kind of experiment: biochemical. Particulars: MUT-3; Ki of mutant/Ki of WT. As to the method: as §1
Assay [14] has as its target multidrug-resistant forms of HIV-1 subtype B PR harboring numerous major and minor mutations. Particulars: cited from earlier work.

T4 sequence (O12158 485-583 L494F/L517F/M530I/I538V/L560V/V566A): as above
T3 sequence (O12158 485-583 M530I/F537L/I538V/L560V/V566A/L574M): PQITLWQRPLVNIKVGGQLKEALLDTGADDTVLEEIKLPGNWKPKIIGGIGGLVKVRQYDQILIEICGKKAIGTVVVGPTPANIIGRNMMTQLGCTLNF

For `CC(C)CN(C[C@@H](O)[C@H](Cc1ccccc1)NC(=O)O[C@H]1CO[C@H]2OCC[C@H]21)S(=O)(=O)c1ccc(N)cc1` [DRV, darunavir], the inhibition constant Ki (in general, the dissociation constant of the complex between target and ligand, obtained from inhibition or displacement) in assay [1] amounted to 1.58 ± 0.11 nM; in [2], 5.53 ± 0.09 nM; in assay [3], 7.8 ± 0.71 nM; in [4], 11.5 ± 1.09 nM; in assay [5] it was 8.12 nM; in assay [6], 32.9 nM. The inhibition constant Ki in [7] is 1.4 ± 0.2 nM; in assay [8] (wild type subtype B HIV-1 PR) it was roughly 0.005 nM; in assay [9], 26.3 nM; in assay [10], 44.7 nM. In addition, in [1], the “Relative Resistance” value turned out to be 1.00. Besides, the “Stern–Volmer quenching constant (Ksv)” value in [5] (WT HIV-1 PR) was 0.030 nM⁻¹; in [6], 0.009 nM⁻¹; in assay [9], 0.01 nM⁻¹; in assay [10], 0.005 nM⁻¹.
Take `Cc1cccc(C)c1OCC(=O)N[C@@H](Cc1ccccc1)[C@@H](O)C[C@H](Cc1ccccc1)NC(=O)[C@H](C(C)C)N1CCCNC1=O` [LPV, lopinavir]: the Ki came to 2.13 ± 0.23 nM in [1]; 46.5 ± 0.14 nM in [2]; 52.6 ± 0.65 nM in assay [3]; 76.26 ± 0.09 nM in [4]; 17.2 nM in assay [5]; 79.5 nM in assay [6]. In addition, the inhibition constant Ki is 2.1 ± 0.2 nM in assay [7]; roughly 0.02 nM in assay [8] (wild-type subtype B HIV-1 PR); 0.44 to 260 nM in assay [14]; 54.7 nM in assay [9]; 113 nM in assay [10]. Further, the “Relative Resistance” value came out at 1.00 in [1], 21.83 in assay [11], 24.71 in assay [12] and 35.80 in [13]. For the same compound, the “Stern–Volmer quenching constant (Ksv)” value in [5] amounted to 0.02 nM⁻¹; in assay [6], 0.004 nM⁻¹; in assay [9], 0.004 nM⁻¹; in assay [10], 0.003 nM⁻¹.
